Like-named read-outs stand apart in the source and are kept apart here. Marks after values point to notes of the source that are not given here. No end group written: not given here.
Experiments:
Assay type in all cases: cell-based
rat erythrocytes = experiment: Hemolytic activity on freshly isolated rat erythrocytes
Procedure: In still another embodiment of the present invention, hemolytic activity of the peptides is assessed on freshly isolated rat erythrocytes.
In still another embodiment of the present invention, heparinized rat blood in saline is initially centrifuged at 1000 rpm for 10 min to remove the buffy coat.
In still another embodiment of the present invention, the erythrocyte suspension is further washed thrice with 5 mM Hepes, pH 7.4 containing 150 mM NaCl.
In still another embodiment of the present invention, aliquots of cell suspension (˜10^6 cells) in eppendorf tubes are incubated with the peptide in duplicates at 37° C. for 30 min with gentle mixing.
In still another embodiment of the present invention, the tubes are then centrifuged and the absorbance of the supernatants is measured at 540 nm. The lysis obtained with 1% triton×100 is taken as 100%.

[1] = tested on: Escherichia coli (W160.37)
Procedure: (§1) In still another embodiment of the present invention, the antimicrobial activities of the peptides are determined in liquid medium by a modified method described by Lehrer et al. (10) In still another embodiment of the present invention, all incubations are carried out at 37° C. Microbial growth is determined by measuring the increase in OD600. The lowest concentration of the peptide that result in complete inhibition of growth is recorded as its minimal inhibitory concentration (MIC). In still another embodiment of the present invention, the microorganisms used are Escherichia coli ([…]) and Staphylococcus aureus. A peptide concentration in stock solution is determined by amino acid analysis.

Staphylococcus aureus = tested on: Staphylococcus aureus
Procedure: as §1

[2] = lowest concentration giving complete inhibition of growth, 37° C., OD600

Molecule | % Hemolytic activity at 100 μg/ml (rat erythrocytes; red cells of rat, 100) | E.CO// (MIC μg/ml) ([1]; W160.37) | S.aureus (MIC μg/ml) (Staphylococcus aureus) | % Hemolytic activity at 100 μg/ml (rat erythrocytes; 100 μg/ml peptide, rat erythrocytes, 37° C., 30 min, 1% triton x100 = 100%) | E.CO// (MIC μg/ml) [1, 2] | S.aureus (MIC μg/ml) (Staphylococcus aureus; [2])
ILPLKLPWLPLRR-NH2 [IL8, ILPLKLPWLPLRR-amide] | 0% | 20 µg/mL | 10 µg/mL | – | – | –
CC[C@H](C)[C@H](N)C(=O)N[C@@H](CC(C)C)C(=O)N1CCC[C@H]1C(=O)N[C@@H](Cc1c[nH]c2ccccc12)C(=O)N[C@@H](CCCCN)C(=O)N[C@@H](Cc1c[nH]c2ccccc12)C(=O)N1CCC[C@H]1C(=O)N[C@@H](Cc1c[nH]c2ccccc12)C(=O)N[C@@H](Cc1c[nH]c2ccccc12)C(=O)N1CCC[C@H]1C(=O)N[C@@H](Cc1c[nH]c2ccccc12)C(=O)N[C@@H](CCCNC(=N)N)C(=O)N[C@@H](CCCNC(=N)N)C(N)=O [IL, ILPWKWPWWPWRR-amide, reference compound] | – | – | – | 100^a % | 5 µg/mL | 2 µg/mL
ILPWKLPLLPLRR-NH2 [IL4, ILPWKLPLLPLRR-amide] | 0% | 15 µg/mL | 10 µg/mL | – | – | –
ILPLKLPLLPWRR-NH2 [IL11, ILPLKLPLLPWRR-amide] | 0% | 20 µg/mL | 5 µg/mL | – | – | –

Reference: patent US7115572B2, “Indolicidin analogs with anti-microbial activity” (Council of Scientific and Industrial Research, priority 2001, dated 2006)
